Measured values: patent US20060287319A1, “Anti-viral compositions comprising heterocyclic substituted phenyl furans and related compounds” (priority 2005, published 2006)
Read-outs that look alike come from different tables or passages of the source.

How the values were obtained:
[1] = test system: HIV-1; conditions: previously reported; cited from earlier work
[2] = test system: HIV-1IIIB in MT-2 cells; assay: Time-of-addition assay (p24 production); assay type: cell-based; conditions: 0.1 μM
Procedure: FIG. 1 NB-206 and its analogs inhibited HIV-1 entry. Inhibition of HIV-1 entry was determined by a time-of-addition assay. NB-206 (2.5 μM) and its analog NB-231 (2.5 μM) were added to MT-2 cells at different intervals post-infection by HIV-1IIIB. AZT (0.1 μM), a reverse transcriptase inhibitor, was included as a control. Each sample was tested in triplicate.
Assessment of anti-HIV-1 infectivity. […] Reactions were terminated by addition of 1N H2SO4.
A time-of-addition assay was carried out to determine whether NB-206 and its analogs are HIV-1 entry inhibitors. MT-2 cells were incubated with HIV-1IIIB at 37° C. for 0, 1, 2, 3, 4, 6, and 8 hrs, respectively, before addition of NB-206 and NB-231 at 2.5 μM. AZT (0.1 μM) was used as a control. After culture for another 2 hrs, the cells were washed to remove the free-virus and compounds. The supernatants were collected on day 4 post-infection for measurement of p24 production.

[3] = test system: HIV-1 IIIB; assay: HIV-1-mediated cytopathic effect (CPE); assay type: cell-based; conditions: read-out: EC50 (μM) (M ± SD) for inhibition of CPE
Excerpt: We thus purchased these compounds and tested their inhibitory activity on: 1) HIV-1 replication (p24 production); 2) HIV-1-mediated cytopathic effect (CPE); and 3) HIV-1 Env-induced cell-cell fusion; and their cytotoxicity to MT-2 cells.

[4] = test system: HIV-1IIIB-infected H9 cells (H9/HIV-1IIIB) cocultured with MT-2 cells; conditions: single dose 25 μg/ml, HTS
Procedure: Syncytium-formation assay for screening HIV-1 fusion inhibitors. HIV-1IIIB-infected H9 cells (H9/HIV-1IIIB) at 2×10^5/ml were cocultured with MT-2 cells (2×10^6/ml) in the presence of compounds to be screened (final concentration of compound: 25 μg/ml) in a 96-well plate at 37° C. for 2 days. HIV-1 induced syncytium formation was observed under an inverted microscope and scored as “−” (no syncytium was observed), “±” (about 50% syncytia were inhibited), and “+” (no syncytium formation was inhibited). The compounds scored with “−” and “±” were selected for further screening by ELISA for inhibitors against the gp41 six-helix bundle formation.

[5] = biological target: gp41 six-helix bundle formation between N36 and C34 (Human immunodeficiency virus type 1 group M subtype B, UniProt P04578)
Chain of gp41 six-helix bundle formation between N36 and C34 (P04578 546-581): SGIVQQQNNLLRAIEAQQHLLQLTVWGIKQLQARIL
Procedure: ELISA for screening for compounds that inhibit the gp41 six-helix bundle formation. A sandwich ELISA as previously described (27) was used to screen for compounds that inhibit the gp41 six-helix bundle formation. Briefly, peptide N36 (2 μM) was pre-incubated with a test compound at the indicated concentrations at 37° C. for 30 min, followed by addition of C34 (2 μM). In the control experiments, N36 was pre-incubated with C34 at 37° C. for 30 min, followed by addition of the test compound. After incubation at 37° C. for 30 min, the mixture was added to wells of a 96-well polystyrene plate (Costar, Corning Inc., Corning, N.Y.) which were precoated with IgG (2 μg/ml) purified from rabbit antisera directed against the N36/C34 mixture. […] Absorbance at 450 nm was measured using an ELISA reader (Ultra 384, Tecan, Research Triangle Park, N.C.). […] Chou (Sloan-Kettering Cancer Center, New York, N.Y.).
A model system of the gp41 six-helix bundle was established by mixing the N— and C-peptides at equal molar concentrations (16).

[6] = test system: HIV-1IIIB infected H9 cells (H9/HIV-1IIIB) and MT-2 cells; assay: HIV-1 mediated cell-cell fusion (dye transfer assay); assay type: cell-based; conditions: H9/HIV-1IIIB with MT-2 cells; read-out: EC50 (μM) (M ± SD) for inhibition of Cell fusion
Procedure: Inhibition of cell-cell fusion. A dye transfer assay was used for detection of HIV-1 mediated cell fusion as previously described (11,25,26). H9/HIV-1IIIB cells were labeled with a fluorescent reagent, Calcein-AM (Molecular Probes, Inc., Eugene, Oreg.) and then incubated with MT-2 cells (ratio=1:5) in 96-well plates at 37° C. for 2 hrs in the presence or absence of compounds tested. The fused and unfused Cacein-labeled HIV-1-infected cells were counted under an inverted fluorescence microscope (Zeiss, Germany) with an eyepiece micrometer disc. The percentage of inhibition of cell fusion and the IC50 values were calculated as previously described (11).

[7] = test system: MT-2 cells
Procedure: Detection of in vitro cytotoxicity. The in vitro cytotoxicity of compounds for MT-2 cells was measured by a colorimetric method using XTT tetrazolium dye as previously described (21). Briefly, 100 μl of a compound at a graded concentration was added to equal volume of cells (5×10^5/ml) in a well of 96-well plates. After incubation at 37° C. for 4 days, XTT (1 mg/ml; […]; PolySciences, Inc., Warrington, Pa.) was added. Four hours later, the soluble intracellular formazan was quantitated colorimetrically at 450 nm with a reference at 570 nm.

[8] = test system: HIV-1 IIIB; conditions: for EC50: read-out: EC50 (μM) (M ± SD) for inhibition of p24, HIV-1 IIIB, MT-2 cells
Procedure: Assessment of anti-HIV-1 infectivity. The inhibitory activity of compounds on infection by laboratory-adapted HIV-1 strains was determined as previously described (34). […] For the time-of-addition assay, compounds were added at various time post-infection. Then the culture supernatants were removed and fresh media were added. On the fourth day post-infection, 100 μl of culture supernatants were collected from each well, mixed with equal volumes of 5% Triton X-100 and assayed for p24 antigen, which was quantitated by ELISA (23). Briefly, the wells of polystyrene plates (Immulon 1B, Dynex Technology, Chantilly, Va.) were coated with HIV immunoglobulin (HIVIG), which was prepared from plasma of HIV-seropositive donors with high neutralizing titers against HIV-1IIIB as previously described (36) in 0.085 M carbonate-bicarbonate buffer (pH 9.6) at 4° C. overnight, followed by washes with PBS-T buffer (0.01M PBS containing 0.05% Tween-20) and blocking with PBS containing 1% dry fat-free milk (Bio-Rad Inc., Hercules, Calif.). Virus lysates were added to the wells and incubated at 37° C. for 1 h. […] Reactions were terminated by addition of 1N H2SO4. […] Recombinant protein p24 (US Biological, Swampscott, Mass.) was included for establishing standard dose response curve.

[9] = read-out: Cytotoxicity CC50 (μM) (M ± SD), MT-2 cells

SMILES | EC50 [3] [µM] | EC50 [6] [µM] | EC50 [8] [µM] | CC50 [7, 9] [µM] | CC50 [7] [µM] | further results
COc1ccc(S(=O)(=O)[O-])cc1N=Nc1c(S(=O)(=O)[O-])cc2cc(Nc3nc(Nc4ccccc4)nc(Nc4cc(C)c(N=Nc5cc(S(=O)(=O)[O-])cc6cc(S(=O)(=O)[O-])cc(O)c56)cc4OC)n3)ccc2c1O.[Na+].[Na+].[Na+].[Na+] [ADS-J1] |  |  |  |  |  | anti-HIV-1 activities [1]: micromolar levels
Cc1cn([C@H]2C[C@H](N=[N+]=[N-])[C@@H](CO)O2)c(=O)[nH]c1=O [AZT] |  |  |  |  |  | inhibition of HIV-1 replication, added 8 hrs post-infection [2]: still effective
O=C(O)c1cccc(-c2ccc(/C=C3\SC(=S)N(c4cccc(Cl)c4)C3=O)o2)c1 [NB145] | 0.18 ± 0.006 | 1.77 ± 0.09 | 0.18 ± 0.02 | 47.5 ± 6.37 |  | inhibition of HIV-1 mediated syncytium formation [4]: completely inhibited; inhibition of six-helix bundle formation between N36 and C34 ([5]; single dose 25 μg/ml, HTS): completely inhibited; SI (CC50/EC50) ([8]; selectivity index): 261.5
O=C(O)c1cccc(-c2ccc(/C=C3\SC(=S)N(c4cccc(C(F)(F)F)c4)C3=O)o2)c1 [NB154] |  |  |  |  |  | IC50 ([5]; read-out: IC50 for inhibition of six-helix bundle formation between N36 and C34, sandwich ELISA, FIG. 3): 1.56 ± 0.12 µM
Cc1cccc(NC(=O)CN2C(=O)S/C(=C\c3ccc(-c4ccc(Cl)c(C(=O)O)c4)o3)C2=O)c1 [NB207] | > 100 | > 100 | > 100 |  | > 464 | 
O=C(O)c1cc(-c2ccc(/C=C3\SC(=S)N(Cc4ccc(F)cc4)C3=O)o2)ccc1Cl [NB208] | > 100 | 6.668 ± 0.042 | 1.84 ± 0.654 | 54.6 ± 15.3 |  | SI (CC50/EC50) ([8]; selectivity index): 29.77
Cc1cccc(NC(=O)CN2C(=O)S/C(=C\c3ccc(-c4cccc(C(=O)O)c4C)o3)C2=O)c1 [NB209] | > 100 | > 100 | > 100 |  | 113 ± 14.8 | 
O=C(O)c1cc(-c2ccc(/C=C3\SC(=S)N(c4ccc(Cl)cc4)C3=O)o2)ccc1Cl [NB213] | 3.7 ± 1.01 | 14.7 ± 0.599 | 0.514 ± 0.128 | 93 ± 12.8 |  | SI (CC50/EC50) ([8]; selectivity index): 181.04
O=C(O)c1cc(-c2ccc(/C=C3\SC(=S)N(C4CCCCC4)C3=O)o2)ccc1Cl [NB219] | 0.401 ± 0.067 | 4.3 ± 0.134 | 0.087 ± 0.04 | 6.87 ± 0.29 |  | SI (CC50/EC50) ([8]; selectivity index): 78.97
O=C(O)c1cccc(-c2ccc(/C=C3\SC(=S)N(c4cccc5ccccc45)C3=O)o2)c1 [NB221] | 1.58 ± 0.241 | 7.11 ± 0.24 | 0.46 ± 0.009 | 34.5 ± 0.46 |  | SI (CC50/EC50) ([8]; selectivity index): 75.04
O=C(O)c1cc(-c2ccc(/C=C3\SC(=S)N(c4ccc([N+](=O)[O-])cc4)C3=O)o2)ccc1Cl [NB222] | > 100 | > 100 | > 100 | > 328 |  | 
Cc1ccc(N2C(=O)/C(=C/c3ccc(-c4cccc(C(=O)O)c4)o3)SC2=S)cc1 [NB230] | 2.16 ± 0.284 | 3.08 ± 0.047 | 0.332 ± 0.095 | 142 |  | SI (CC50/EC50) ([8]; selectivity index): 428.93
COC(=O)CN1C(=O)S/C(=C\c2ccc(-c3cc(C(=O)O)ccc3Cl)o2)C1=O [NB234] | > 100 | > 100 | > 100 | > 379 |  | 
O=C1/C(=C/c2ccc(-c3cccc(Cl)c3)o2)SC(=S)N1c1ccccc1 [NB239] | > 100 | > 100 | > 100 | > 402 |  | 

Continued, in another order:

EC50 [3] [µM] | EC50 [6] [µM] | EC50 [8] [µM] | SMILES | CC50 [7, 9] [µM] | CC50 [7] [µM] | further results
2.23 ± 0.515 | 68.6 ± 1.83 | 1.13 ± 0.103 | COc1ccc(CN2C(=O)/C(=C/c3ccc(-c4ccc(Cl)c(C(=O)O)c4)o3)SC2=S)cc1 [NB211] |  | 93.2 ± 4.41 | SI (CC50/EC50) [8]: 82.24
3.53 ± 0.738 | 2.23 ± 0.082 | 0.943 ± 0.144 | CCN1C(=O)/C(=C/c2ccc(-c3ccc(Cl)c(C(=O)O)c3)o2)SC1=S [NB214] |  | 44.8 ± 1.25 | SI (CC50/EC50) [8]: 47.5
> 100 | > 100 | > 100 | C#CCN1C(=O)S/C(=C\c2ccc(-c3cccc(C(=O)O)c3)o2)C1=O [NB216] |  | 55.3 ± 10 | 
3.46 ± 0.2 | > 100 | 2.12 ± 0.38 | COC(=O)c1ccccc1N1C(=O)/C(=C/c2ccc(-c3ccc(Cl)c(C(=O)O)c3)o2)SC1=S [NB226] |  | > 320 | 
> 100 | > 100 | > 100 | Cc1c(C(=O)O)cccc1-c1ccc(/C=C2\SC(=S)N(CC(=O)O)C2=O)o1 [NB228] |  | > 397 | 
> 100 | > 100 | > 100 | O=C(O)c1cccc(-c2ccc(/C=C3\SC(=S)N(c4ccc(F)cc4)C3=O)o2)c1 [NB229] |  | > 376 | 
> 100 | > 100 | > 100 | CCC(C)N1C(=O)S/C(=C\c2ccc(-c3cc(C(=O)O)ccc3Cl)o2)C1=O (stereo not shown) [NB232] |  | > 394 | 
> 100 | > 100 | > 100 | O=C(O)CN1C(=O)/C(=C/c2ccc(-c3cc(C(=O)O)ccc3Cl)o2)SC1=S [NB235] |  | > 378 | 
> 100 | > 100 | > 100 | CCN1C(=O)S/C(=C\c2ccc(-c3cc(C(=O)O)ccc3Cl)o2)C1=O [NB236] |  | 113 ± 8.64 | 
> 100 | > 100 | > 100 | COC(=O)C(C)N1C(=O)S/C(=C\c2ccc(-c3cc(C(=O)O)ccc3C)o2)C1=O (stereo not shown) [NB237] |  | 67.7 ± 15 | 
